Earlier results, collected in US20250231185A1, “Coronavirus T Cell Epitopes, Megapools and Uses Thereof” (La Jolla Institute for Immunology, priority 2021, published 2025).
Like-named read-outs stand apart in the source and are kept apart here.

Test system: CD8+ T cells
Conditions: cited from earlier work
[1] = SARS-CoV-2 Ag S, T cell type recognizing the epitope
[2] = CD8R (D) megapool epitopes, dominant = recognized by 3 or more donors/different studies
[3] = CD8RE megapool peptides (non-spike SARS-CoV-2 antigens), dominant epitope Yes/No
[4] = T cell subset (CD4 or CD8) recognizing the SARS-CoV-2-derived epitope
[5] = SARS-CoV-2-derived CD8 epitopes, dominant = recognized by 3 or more donors/different studies
[6] = T cell type (CD4 or CD8) recognizing the SARS-CoV-2 epitope

1403 (SVLNDILSR) [compound 1403]
Restriction [1]: CD8

1706 (ILLNKHIDA) [compound 1706]
Dominant [2]: Yes (more dominant epitopes are defined by being recognized by 3 or more donors/different studies)

2904 (KLLEQWNLV) [compound 2904]
Dominant [3]: Yes (more dominant epitopes are defined by being recognized by 3 or more donors/different studies)

570 (AIILASFSAST) [compound 570]
Restriction [4]: CD8

1797 (CTDDNALAYY) [compound 1797]
Dominant [2]: Yes (more dominant epitopes are defined by being recognized by 3 or more donors/different studies)

574 (RLIDAMMFT) [compound 574]
Restriction [4]: CD8

2903 (GTITVEELK) [compound 2903]
Dominant [3]: Yes (more dominant epitopes are defined by being recognized by 3 or more donors/different studies)

2976 (VLWAHGFEL) [compound 2976]
Dominant [3]: Yes (more dominant epitopes are defined by being recognized by 3 or more donors/different studies)

1445 (IITTDNTFV) [compound 1445]
Restriction [1]: CD8

2964 (VLQAVGACV) [compound 2964]
Dominant [3]: Yes (more dominant epitopes are defined by being recognized by 3 or more donors/different studies)

2968 (VVYRGTTTY) [compound 2968]
Dominant [3]: Yes (more dominant epitopes are defined by being recognized by 3 or more donors/different studies)

2995 (VTNNTFTLK) [compound 2995]
Dominant [3]: Yes (more dominant epitopes are defined by being recognized by 3 or more donors/different studies)

3034 (VTDTPKGPK) [compound 3034]
Dominant [3]: Yes (more dominant epitopes are defined by being recognized by 3 or more donors/different studies)

679 (FTCASEYTGNY) [compound 679]
Restriction [4]: CD8

585 (DTVIEVQGYK) [compound 585]
Restriction [4]: CD8

629 (TDNYITTY) [compound 629]
Dominant [5]: Yes (more dominant epitopes are defined by being recognized by 3 or more donors/different studies)
Restriction [4]: CD8

1058 (LLADKFPVL) [compound 1058]
Restriction [6]: CD8

2955 (RQLLFVVEV) [compound 2955]
Dominant [3]: Yes (more dominant epitopes are defined by being recognized by 3 or more donors/different studies)

500 (MKDLSPRWY) [compound 500]
Restriction [4]: CD8

934 (VENPDILRV) [compound 934]
Restriction [6]: CD8

1724 (DTDFVNEFY) [compound 1724]
Dominant [2]: Yes (more dominant epitopes are defined by being recognized by 3 or more donors/different studies)

1776 (FLLNKEMYL) [compound 1776]
Dominant [2]: Yes (more dominant epitopes are defined by being recognized by 3 or more donors/different studies)

1337 (QLTPTWRVY) [compound 1337]
Restriction [1]: CD8

1040 (VVNARLRAK) [compound 1040]
Restriction [6]: CD8

1037 (IPARARVEC) [compound 1037]
Restriction [6]: CD8

678 (SAPPAQYEL) [compound 678]
Dominant [5]: Yes (more dominant epitopes are defined by being recognized by 3 or more donors/different studies)
Restriction [4]: CD8

1720 (RQLLFVVEV) [compound 1720]
Dominant [2]: Yes (more dominant epitopes are defined by being recognized by 3 or more donors/different studies)

1306 (RLFRKSNLK) [compound 1306]
Restriction [1]: CD8

2997 (PTDNYITTY) [compound 2997]
Dominant [3]: Yes (more dominant epitopes are defined by being recognized by 3 or more donors/different studies)

971 (FAYTKRNVI) [compound 971]
Restriction [6]: CD8

549 (AYKTFPPTEPK) [compound 549]
Dominant [5]: Yes (more dominant epitopes are defined by being recognized by 3 or more donors/different studies)
Restriction [4]: CD8

VLNDILSRL [SEQ ID NO: 1508]
IFN-f response (Habel et al., 14 peptides screened, HLA-A*02:01): less prominently recognized

1034 (YQKVGMQKY) [compound 1034]
Restriction [6]: CD8

1383 (GLTVLPPLL) [compound 1383]
Restriction [1]: CD8

622 (FLTENLLLYI) [compound 622]
Restriction [4]: CD8

621 (ESKPSVEQR) [compound 621]
Restriction [4]: CD8

1744 (IEYPIIGDEL) [compound 1744]
Dominant [2]: Yes (more dominant epitopes are defined by being recognized by 3 or more donors/different studies)

3026 (NTCDGTTFTY) [compound 3026]
Dominant [3]: Yes (more dominant epitopes are defined by being recognized by 3 or more donors/different studies)

2977 (TYACWHHSI) [compound 2977]
Dominant [3]: Yes (more dominant epitopes are defined by being recognized by 3 or more donors/different studies)

1666 (SLVKPSFYV) [compound 1666]
Dominant [2]: Yes (more dominant epitopes are defined by being recognized by 3 or more donors/different studies)

1339 (RVYSTGSNVF) [compound 1339]
Restriction [1]: CD8

569 (EEIAIILASF) [compound 569]
Restriction [4]: CD8

1687 (KMKDLSPRW) [compound 1687]
Dominant [2]: Yes (more dominant epitopes are defined by being recognized by 3 or more donors/different studies)

577 (YEKLKPVL) [compound 577]
Restriction [4]: CD8

1785 (FLLPSLATV) [compound 1785]
Dominant [2]: Yes (more dominant epitopes are defined by being recognized by 3 or more donors/different studies)

2931 (LLLDRLNQL) [compound 2931]
Dominant [3]: Yes (more dominant epitopes are defined by being recognized by 3 or more donors/different studies)

1465 (FDEDDSEPVL) [compound 1465]
Restriction [1]: CD8

642 (ISLAGSYKDW) [compound 642]
Restriction [4]: CD8

516 (SQASSRSSSR) [compound 516]
Restriction [4]: CD8

1686 (RIRGGDGKMK) [compound 1686]
Dominant [2]: Yes (more dominant epitopes are defined by being recognized by 3 or more donors/different studies)

1818 (LEYHDVRVVL) [compound 1818]
Dominant [2]: Yes (more dominant epitopes are defined by being recognized by 3 or more donors/different studies)

3036 (FVRATATIPI) [compound 3036]
Dominant [3]: Yes (more dominant epitopes are defined by being recognized by 3 or more donors/different studies)

969 (ARLYYDSMSY) [compound 969]
Restriction [6]: CD8

626 (ALRKVPTDNY) [compound 626]
Restriction [4]: CD8

635 (KLMPVCVET) [compound 635]
Restriction [4]: CD8

567 (GFMGRIRSV) [compound 567]
Restriction [4]: CD8

2909 (RLFARTRSMW) [compound 2909]
Dominant [3]: Yes (more dominant epitopes are defined by being recognized by 3 or more donors/different studies)

3050 (IMLIIFWFSL) [compound 3050]
Dominant [3]: Yes (more dominant epitopes are defined by being recognized by 3 or more donors/different studies)

2930 (LLLLDRLNQL) [compound 2930]
Dominant [3]: Yes (more dominant epitopes are defined by being recognized by 3 or more donors/different studies)

1441 (FVSNGTHWF) [compound 1441]
Restriction [1]: CD8

941 (HVDTDLTKPY) [compound 941]
Restriction [6]: CD8

550 (YKTFPPTEPK) [compound 550]
Restriction [4]: CD8

1395 (FAMQMAYRF) [compound 1395]
Restriction [1]: CD8

917 (YFIKGLNNL) [compound 917]
Restriction [6]: CD8
